{
  "source": "patent US6642216B2",
  "about": "“Isoprenoid pathway inhibitors for stimulating bone growth” (ZymoGenetics Corporation, priority 1996, dated 2003)",
  "key": {"[1]": {"tested_on": "BMP-2 promoter", "assay": "ABA assay: BMP-2 promoter-luciferase reporter in 2T3-BMP-2-LUC osteoblast cells", "format": "cell-based, mouse", "description": "These transformed cells are then evaluated for the production of the reporter gene product; compounds that activate the BMP promoter will drive production of the reporter protein, which can be readily assayed.\nThe cells were cultured using α-MEM, 10% FCS with 1% penicillin/streptomycin and 1% glutamine (“plating medium”), and were split 1:5 once per week. For the assay, the cells were resuspended in a plating medium containing 4% FCS, plated in microtiter plates at a concentration of 5×10^3 cells (in 50 μl)/well, and incubated for 24 hours at 37° C. in 5% CO2. To initiate the assay, 50 μl of the test compound or the control in DMSO was added at 2× concentration to each well, so that the final volume was 100 μl. The final serum concentration was 2% FCS, and the final DMSO concentration was 1%.\nThe treated cells were incubated for 24 hours at 37° C. and 5% CO2. The medium was then removed, and the cells were rinsed three times with PBS. After removal of excess PBS, 25 μl of 1× cell culture lysing reagent (Promega #E153A) was added to each well and incubated for at least ten minutes. Optionally, the plates/samples could be frozen at this point. To each well was added 50 μl of luciferase substrate (Promega #E152A; 10 ml Promega luciferase assay buffer per 7 mg Promega luciferase assay substrate). Luminescence was measured on an automated 96-well luminometer, and was expressed as either picograms of luciferase activity per well or as picograms of luciferase activity per microgram of protein.\nAlternatively, the reactivity of a compound to be tested can be compared directly to a negative control containing no compound."}, "[2]": {"tested_on": "murine calvariae", "settings": "reports by R. G. G. Russell and colleagues; cited from earlier work"}, "[3]": {"tested_on": "serum response element (SRE)-luciferase reporter gene / CRE-luciferase reporter gene", "assay": "negative control OBSRE (SRE-luciferase) and/or glucagon (CRE-luciferase) assays", "format": "cell-based, murine", "text": "In the negative control OBSRE assay, a murine osteoblast cell line, such as CCC-4 expressing a serum response element (SRE)-luciferase reporter gene is used (see WO96/07733). In the negative control glucagon assay, a glucagon receptor-positive BHK cell expressing a CRE-luciferase reporter gene is used (see U.S. Pat. No. 5,698,672)."}, "[4]": {"settings": "Experiment 2, 0.097656 μM, 0.038085 μg/ml"}, "[5]": {"settings": "Experiment 2, 0.195312 μM, 0.076171 μg/ml"}, "[6]": {"settings": "Experiment 2, 0.390625 μM, 0.152343 μg/ml"}, "[7]": {"settings": "Experiment 2, 0.78125 μM, 0.304687 μg/ml"}, "[8]": {"settings": "Experiment 2, 1.5625 μM, 0.609375 μg/ml"}, "[9]": {"settings": "Experiment 2, 3.125 μM, 1.21875 μg/ml"}, "[10]": {"settings": "Experiment 2, 6.25 μM, 2.4375 μg/ml"}, "[11]": {"settings": "Experiment 2, 12.5 μM, 4.875 μg/ml"}, "[12]": {"settings": "Experiment 2, 25 μM, 9.75 μg/ml"}, "[13]": {"settings": "Experiment 2, 50 μM, 19.5 μg/ml"}},
  "data": [
    {"smiles": "CC[C@H](C)C(=O)O[C@H]1CCC=C2C=C[C@H](C)[C@H](CC[C@@H]3C[C@@H](O)CC(=O)O3)[C@H]21", "note": "[Mevastatin, mevastatin]", "values": [
      {"measurement": "dose-dependent stimulatory effect in the ABA assay", "setting": "[1]", "value": "dose-dependent stimulatory effect"},
      {"measurement": "% 59-0008 Response", "setting": "[1]; Experiment 1, 0.195312 μg/ml", "value": 25.840, "unit": "%"},
      {"measurement": "Fold increase over negative control", "setting": "[1]; Experiment 1, 0.195312 μg/ml", "value": 2.144, "unit": "fold"},
      {"measurement": "% 59-0008 Response", "setting": "[1]; Experiment 1, 0.390625 μg/ml", "value": 15.650, "unit": "%"},
      {"measurement": "Fold increase over negative control", "setting": "[1]; Experiment 1, 0.390625 μg/ml", "value": 1.693, "unit": "fold"},
      {"measurement": "% 59-0008 Response", "setting": "[1]; Experiment 1, 0.78125 μg/ml", "value": 34.520, "unit": "%"},
      {"measurement": "Fold increase over negative control", "setting": "[1]; Experiment 1, 0.78125 μg/ml", "value": 2.528, "unit": "fold"},
      {"measurement": "% 59-0008 Response", "setting": "[1]; Experiment 1, 1.5625 μg/ml", "value": 47.630, "unit": "%"},
      {"measurement": "Fold increase over negative control", "setting": "[1]; Experiment 1, 1.5625 μg/ml", "value": 3.103, "unit": "fold"},
      {"measurement": "% 59-0008 Response", "setting": "[1]; Experiment 1, 3.125 μg/ml", "value": 99.670, "unit": "%"},
      {"measurement": "Fold increase over negative control", "setting": "[1]; Experiment 1, 3.125 μg/ml", "value": 5.413, "unit": "fold"},
      {"measurement": "% 59-0008 Response", "setting": "[1]; Experiment 1, 6.25 μg/ml", "value": 140.260, "unit": "%"},
      {"measurement": "Fold increase over negative control", "setting": "[1]; Experiment 1, 6.25 μg/ml", "value": 7.210, "unit": "fold"},
      {"measurement": "% 59-0008 Response", "setting": "[1]; Experiment 1, 12.5 μg/ml", "value": 164.730, "unit": "%"},
      {"measurement": "Fold increase over negative control", "setting": "[1]; Experiment 1, 12.5 μg/ml", "value": 8.293, "unit": "fold"},
      {"measurement": "% 59-0008 Response", "setting": "[1]; Experiment 1, 25 μg/ml", "value": 152.690, "unit": "%"},
      {"measurement": "Fold increase over negative control", "setting": "[1]; Experiment 1, 25 μg/ml", "value": 7.760, "unit": "fold"},
      {"measurement": "% 59-0008 Response", "setting": "[1]; Experiment 1, 50 μg/ml", "value": 153.110, "unit": "%"},
      {"measurement": "Fold increase over negative control", "setting": "[1]; Experiment 1, 50 μg/ml", "value": 7.779, "unit": "fold"},
      {"measurement": "% 59-0008 Response", "setting": "[1]; Experiment 1, 100 μg/ml", "value": 12.460, "unit": "%"},
      {"measurement": "Fold increase over negative control", "setting": "[1]; Experiment 1, 100 μg/ml", "value": 1.552, "unit": "fold"},
      {"measurement": "% 59-0008 Response", "setting": "[1]; Experiment 1, 200 μg/ml", "value": "−1.600", "unit": "%"},
      {"measurement": "Fold increase over negative control", "setting": "[1]; Experiment 1, 200 μg/ml", "value": 0.929, "unit": "fold"},
      {"measurement": "% 59-0008 Response", "setting": "[1]; [4]", "value": 2.880, "unit": "%"},
      {"measurement": "Fold increase over negative control", "setting": "[1]; [4]", "value": 1.1, "unit": "fold"},
      {"measurement": "% 59-0008 Response", "setting": "[1]; [5]", "value": "−0.090", "unit": "%"},
      {"measurement": "Fold increase over negative control", "setting": "[1]; [5]", "value": 0.9, "unit": "fold"},
      {"measurement": "% 59-0008 Response", "setting": "[1]; [6]", "value": 0.960, "unit": "%"},
      {"measurement": "Fold increase over negative control", "setting": "[1]; [6]", "value": 1.0, "unit": "fold"},
      {"measurement": "% 59-0008 Response", "setting": "[1]; [7]", "value": 2.370, "unit": "%"},
      {"measurement": "Fold increase over negative control", "setting": "[1]; [7]", "value": 1.1, "unit": "fold"},
      {"measurement": "% 59-0008 Response", "setting": "[1]; [8]", "value": 9.780, "unit": "%"},
      {"measurement": "Fold increase over negative control", "setting": "[1]; [8]", "value": 1.6, "unit": "fold"},
      {"measurement": "% 59-0008 Response", "setting": "[1]; [9]", "value": 10.970, "unit": "%"},
      {"measurement": "Fold increase over negative control", "setting": "[1]; [9]", "value": 1.7, "unit": "fold"},
      {"measurement": "% 59-0008 Response", "setting": "[1]; [10]", "value": 36.210, "unit": "%"},
      {"measurement": "Fold increase over negative control", "setting": "[1]; [10]", "value": 3.4, "unit": "fold"},
      {"measurement": "% 59-0008 Response", "setting": "[1]; [11]", "value": 66.010, "unit": "%"},
      {"measurement": "Fold increase over negative control", "setting": "[1]; [11]", "value": 5.3, "unit": "fold"},
      {"measurement": "% 59-0008 Response", "setting": "[1]; [12]", "value": 71.630, "unit": "%"},
      {"measurement": "Fold increase over negative control", "setting": "[1]; [12]", "value": 5.7, "unit": "fold"},
      {"measurement": "% 59-0008 Response", "setting": "[1]; [13]", "value": 97.420, "unit": "%"},
      {"measurement": "Fold increase over negative control", "setting": "[1]; [13]", "value": 7.4, "unit": "fold"},
      {"measurement": "% 59-0008 Response", "setting": "[1]; Experiment 2, 100 μM, 39 μg/ml", "value": 88.860, "unit": "%"},
      {"measurement": "Fold increase over negative control", "setting": "[1]; Experiment 2, 100 μM, 39 μg/ml", "value": 6.9, "unit": "fold"},
      {"measurement": "inhibition of bone resorption in murine calvariae in vitro", "setting": "[2]", "value": "inhibits bone resorption"},
      {"measurement": "dose-dependent stimulatory effect in control assays", "setting": "[3]", "value": "not in control assays"}
    ]}
  ]
}
